Reference: patent US10183955B2, “Molecules for isolation of polyribosomes, ribosomes, uses and kits thereof” (Immagina Biotechnology S.r.l., priority 2015, dated 2019)

Experiments:
[1] = test system: in vitro-cell free translation system (IVTT euk-mix); experiment: In vitro cell-free expression of firefly luciferase (IVTT euk-mix), SDS-PAGE and luminescence; format: biochemical
Method: FIG. 9. Effect of 3P and puromycin on in vitro-cell free expression of the luciferase gene. Luciferase protein production in the presence of different concentrations of puromycin and 3P (left panel). The firefly luciferase is expressed in vitro (90 min) adding z-labeled biotinylated lysine-tRNAs to the reaction. After incubation with streptavidin-HRP, the protein is visualized by chemiluminescence.
To date, no structural data are available for puromycin binding in complex with the eukaryotic ribosome, while the bonding of a puromycin derivative in bacterial ribosome is well described^49. […] In particular, we tested the effect of 3P on an in vitro-cell free translation system (hereinafter called “IVTT euk-mix”: TNT Quick coupled Transcription/Translation System, Promega #L2881) using a firefly luciferase gene (Promega #L4741). […] After 90 minutes of incubation, we monitored the protein production by SDS-PAGE and luminescence assay (FIG. 9). […]
The luciferase translation efficiency was monitored by means of luminescence signal using the Bright-Glo™ Luciferase Assay System (Promega, E2610) and the Infinite 200 PRO reader (Tecan), according to the manufacturer's instruction. […]

[2] = test system: IVTT euk-mix; experiment: EGFP expression in IVTT euk-mix, Western blot; format: biochemical; conditions: 1 hour, 30° C., 2 μg plasmid, 50 μL IVTT euk-mix
Method: FIG. 10. Expression of the firefly luciferase and the Enhanced Green Fluorescent Protein (EGFP) in the presence of 3P. (a, top), Effect of 3P on luciferase protein expression. ε-Labeled biotinylated lysine-tRNAs is used to monitor the protein production by SDS-PAGE. (a, bottom), Histogram representing the relative quantification (density fold change) of the bands reported in the western blot (up), respect to the control (input, reaction mix without 3P). Reactions are carried out in a final volume of 50 μL of IVTT euk-mix. Error bars represent s.d. calculated from a duplicate experiment; (b, top-left), Scheme of the plasmid used for EGFP expression. Restriction sites used to clone the gene are reported. (b, top-right) The effect of 3P on EGFP expression monitored by Western Blot analysis. Reactions are performed in a final volume of 50 μL of IVTT euk-mix (up) or IVTT pro-mix (down). (b, bottom). Effect of 3P and 3PP on EGFP expression in a IVTT euk-mix.
FIG. 15. Isolation of actively translated GFP transcripts after in vitro expression of EGFP protein. (a, left) The two plasmids used for EGFP expression (pBluescript II KS+, Genscript; pPR-IBA2, IBA, #2-1391-000). […] The relative abundance is reported as 2^(39-Cq), where 39 are the number of cycles and Cq is the quantification cycle. […]

| Structure (SMILES) | b of best fit y=A*exp(−x/b) of luciferase expression as a function of concentration (A=100) ([1]; concentrations 0, 0.01, 0.1, 1, 10 μM, n=3) | protein synthesis upon titration ([1]; firefly luciferase, 90 minutes, 0-10 μM) | effect on EGFP expression (free in solution) [2] |
| --- | --- | --- | --- |
| COc1ccc(C[C@H](N)C(=O)N[C@H]2[C@@H](O)[C@H](n3cnc4c(N(C)C)ncnc43)O[C@@H]2CO)cc1 [puromycin] | 0.020±0.003 | exponential decay of the protein synthesis | – |
| COC(=O)C[C@](O)(CCC(C)(C)O)C(=O)O[C@@H]1C(OC)=C[C@]23CCCN2CCc2cc4c(cc2[C@H]13)OCO4 [harringtonine] | – | – | inhibitory effect |
